These results are taken from US7166584B1, “Cholesterol transport gene” (Wisconsin Alumni Research Foundation, priority 1999, dated 2007).

In experiment [1] the target is T1, ABC1 (Mus musculus, UniProt P41233). On the set-up: host or cells: frog oocytes. To be noted: frog oocytes induced to express ABC1; Becq et al. 1997; cited from earlier work.
Target sequence in this assay (P41233 61-2261 limits assumed): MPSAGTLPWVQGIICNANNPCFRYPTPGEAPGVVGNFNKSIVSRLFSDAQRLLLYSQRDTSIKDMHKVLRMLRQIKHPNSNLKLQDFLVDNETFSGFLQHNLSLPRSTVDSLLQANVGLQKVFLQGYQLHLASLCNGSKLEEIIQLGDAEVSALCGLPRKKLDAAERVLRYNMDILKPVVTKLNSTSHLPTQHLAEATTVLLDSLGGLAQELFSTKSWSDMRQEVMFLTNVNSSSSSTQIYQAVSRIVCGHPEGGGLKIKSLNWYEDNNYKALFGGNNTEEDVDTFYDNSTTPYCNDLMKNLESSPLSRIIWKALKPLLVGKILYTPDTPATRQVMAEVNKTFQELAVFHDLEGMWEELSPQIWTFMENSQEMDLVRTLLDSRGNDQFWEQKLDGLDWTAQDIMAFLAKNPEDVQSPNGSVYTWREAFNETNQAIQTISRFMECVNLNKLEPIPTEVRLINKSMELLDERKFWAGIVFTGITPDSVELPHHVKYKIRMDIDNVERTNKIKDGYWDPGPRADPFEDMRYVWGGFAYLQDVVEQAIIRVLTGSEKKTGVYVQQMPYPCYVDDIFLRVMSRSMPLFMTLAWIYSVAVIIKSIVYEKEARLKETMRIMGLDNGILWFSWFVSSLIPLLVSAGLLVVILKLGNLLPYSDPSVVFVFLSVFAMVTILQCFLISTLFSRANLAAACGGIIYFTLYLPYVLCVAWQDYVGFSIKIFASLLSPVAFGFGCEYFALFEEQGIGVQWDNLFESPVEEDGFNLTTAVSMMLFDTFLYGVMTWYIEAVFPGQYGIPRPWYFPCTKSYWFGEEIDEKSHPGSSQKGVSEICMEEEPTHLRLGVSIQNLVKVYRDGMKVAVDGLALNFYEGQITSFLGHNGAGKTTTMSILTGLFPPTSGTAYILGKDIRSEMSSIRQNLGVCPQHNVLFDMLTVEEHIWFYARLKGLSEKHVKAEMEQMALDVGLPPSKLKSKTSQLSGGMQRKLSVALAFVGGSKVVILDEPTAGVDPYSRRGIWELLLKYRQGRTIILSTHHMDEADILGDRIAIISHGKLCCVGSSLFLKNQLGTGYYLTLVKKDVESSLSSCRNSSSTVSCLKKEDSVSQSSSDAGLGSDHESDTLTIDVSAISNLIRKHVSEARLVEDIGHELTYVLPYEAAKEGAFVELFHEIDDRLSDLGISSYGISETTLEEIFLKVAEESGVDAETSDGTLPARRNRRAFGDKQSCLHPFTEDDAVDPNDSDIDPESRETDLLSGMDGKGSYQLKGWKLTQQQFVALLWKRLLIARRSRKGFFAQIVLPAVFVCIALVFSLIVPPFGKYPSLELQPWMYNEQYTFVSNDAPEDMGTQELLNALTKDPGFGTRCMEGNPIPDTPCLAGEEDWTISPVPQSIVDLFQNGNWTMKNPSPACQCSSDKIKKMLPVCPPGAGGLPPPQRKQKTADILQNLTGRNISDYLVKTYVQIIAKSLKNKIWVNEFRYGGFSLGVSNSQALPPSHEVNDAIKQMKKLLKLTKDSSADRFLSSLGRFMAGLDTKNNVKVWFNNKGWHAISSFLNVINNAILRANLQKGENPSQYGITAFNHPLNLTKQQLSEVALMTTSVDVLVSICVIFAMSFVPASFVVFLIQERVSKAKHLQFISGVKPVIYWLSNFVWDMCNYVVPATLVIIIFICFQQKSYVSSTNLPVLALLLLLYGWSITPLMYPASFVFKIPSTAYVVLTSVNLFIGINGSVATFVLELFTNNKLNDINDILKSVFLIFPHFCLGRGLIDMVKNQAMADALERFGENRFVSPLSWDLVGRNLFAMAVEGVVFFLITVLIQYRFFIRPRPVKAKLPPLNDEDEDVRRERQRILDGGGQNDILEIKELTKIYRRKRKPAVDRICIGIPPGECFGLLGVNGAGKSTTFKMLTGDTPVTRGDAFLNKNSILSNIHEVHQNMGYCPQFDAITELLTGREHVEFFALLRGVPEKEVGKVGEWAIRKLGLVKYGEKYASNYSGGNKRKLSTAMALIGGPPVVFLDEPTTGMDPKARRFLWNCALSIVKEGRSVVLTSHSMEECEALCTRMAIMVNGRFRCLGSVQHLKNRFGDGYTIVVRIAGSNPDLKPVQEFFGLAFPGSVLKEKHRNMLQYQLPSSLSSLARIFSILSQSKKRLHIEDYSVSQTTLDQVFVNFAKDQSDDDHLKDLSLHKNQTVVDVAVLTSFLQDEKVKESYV
Experiment [2] addresses T1, ABC1. As to the kind of experiment: Cholesterol efflux from 3H-cholesterol-labeled J774 macrophages to apolipoprotein-A1. It is filed as cell-based. On the set-up: Mouse macrophages (J774) were labeled with ^3H-cholesterol; endogenous in cells; host or cells: J774 mouse macrophages. To be noted: 20 μg/ml human apolipoprotein-A1, indicated concentrations, 24 hours, data only in FIG. 4. The source says:
A cholesterol efflux assay measures the ability of cells to transfer cholesterol to an extracellular acceptor molecule and is dependent on ABC1 function. A standard cholesterol efflux assay is set out in Marcil et al., Arterioscler. Thromb. Vasc. Biol. 19:159–169, 1999, incorporated by reference herein for all purposes. Prior to this invention, this assay has not been used to identify compounds useful for reducing cholesterol transport from the gut to the blood or lymph, or for reducing LDL or serum cholesterol levels.
In this procedure, cells are loaded with radiolabeled cholesterol by any of several biochemical pathways. Cholesterol efflux of cells is measured after incubation for various times (typically 0 to 24 hours) in the presence of HDL3 or purified ApoAI. Cholesterol efflux is determined as the percentage of total cholesterol in the culture medium after various times of incubation. Increased ABC1 expression levels and/or biological activity are associated with increased efflux while decreased levels of ABC1 expression and/or biological activity are associated with decreased cholesterol efflux.
ABC1 activity can be inhibited genetically or chemically. […] After 24 hours, the medium was collected, centrifuged, and an aliquot collected for radioactivity determination by liquid scintillation counting. […]
Target sequence in this assay (P41233 whole entry): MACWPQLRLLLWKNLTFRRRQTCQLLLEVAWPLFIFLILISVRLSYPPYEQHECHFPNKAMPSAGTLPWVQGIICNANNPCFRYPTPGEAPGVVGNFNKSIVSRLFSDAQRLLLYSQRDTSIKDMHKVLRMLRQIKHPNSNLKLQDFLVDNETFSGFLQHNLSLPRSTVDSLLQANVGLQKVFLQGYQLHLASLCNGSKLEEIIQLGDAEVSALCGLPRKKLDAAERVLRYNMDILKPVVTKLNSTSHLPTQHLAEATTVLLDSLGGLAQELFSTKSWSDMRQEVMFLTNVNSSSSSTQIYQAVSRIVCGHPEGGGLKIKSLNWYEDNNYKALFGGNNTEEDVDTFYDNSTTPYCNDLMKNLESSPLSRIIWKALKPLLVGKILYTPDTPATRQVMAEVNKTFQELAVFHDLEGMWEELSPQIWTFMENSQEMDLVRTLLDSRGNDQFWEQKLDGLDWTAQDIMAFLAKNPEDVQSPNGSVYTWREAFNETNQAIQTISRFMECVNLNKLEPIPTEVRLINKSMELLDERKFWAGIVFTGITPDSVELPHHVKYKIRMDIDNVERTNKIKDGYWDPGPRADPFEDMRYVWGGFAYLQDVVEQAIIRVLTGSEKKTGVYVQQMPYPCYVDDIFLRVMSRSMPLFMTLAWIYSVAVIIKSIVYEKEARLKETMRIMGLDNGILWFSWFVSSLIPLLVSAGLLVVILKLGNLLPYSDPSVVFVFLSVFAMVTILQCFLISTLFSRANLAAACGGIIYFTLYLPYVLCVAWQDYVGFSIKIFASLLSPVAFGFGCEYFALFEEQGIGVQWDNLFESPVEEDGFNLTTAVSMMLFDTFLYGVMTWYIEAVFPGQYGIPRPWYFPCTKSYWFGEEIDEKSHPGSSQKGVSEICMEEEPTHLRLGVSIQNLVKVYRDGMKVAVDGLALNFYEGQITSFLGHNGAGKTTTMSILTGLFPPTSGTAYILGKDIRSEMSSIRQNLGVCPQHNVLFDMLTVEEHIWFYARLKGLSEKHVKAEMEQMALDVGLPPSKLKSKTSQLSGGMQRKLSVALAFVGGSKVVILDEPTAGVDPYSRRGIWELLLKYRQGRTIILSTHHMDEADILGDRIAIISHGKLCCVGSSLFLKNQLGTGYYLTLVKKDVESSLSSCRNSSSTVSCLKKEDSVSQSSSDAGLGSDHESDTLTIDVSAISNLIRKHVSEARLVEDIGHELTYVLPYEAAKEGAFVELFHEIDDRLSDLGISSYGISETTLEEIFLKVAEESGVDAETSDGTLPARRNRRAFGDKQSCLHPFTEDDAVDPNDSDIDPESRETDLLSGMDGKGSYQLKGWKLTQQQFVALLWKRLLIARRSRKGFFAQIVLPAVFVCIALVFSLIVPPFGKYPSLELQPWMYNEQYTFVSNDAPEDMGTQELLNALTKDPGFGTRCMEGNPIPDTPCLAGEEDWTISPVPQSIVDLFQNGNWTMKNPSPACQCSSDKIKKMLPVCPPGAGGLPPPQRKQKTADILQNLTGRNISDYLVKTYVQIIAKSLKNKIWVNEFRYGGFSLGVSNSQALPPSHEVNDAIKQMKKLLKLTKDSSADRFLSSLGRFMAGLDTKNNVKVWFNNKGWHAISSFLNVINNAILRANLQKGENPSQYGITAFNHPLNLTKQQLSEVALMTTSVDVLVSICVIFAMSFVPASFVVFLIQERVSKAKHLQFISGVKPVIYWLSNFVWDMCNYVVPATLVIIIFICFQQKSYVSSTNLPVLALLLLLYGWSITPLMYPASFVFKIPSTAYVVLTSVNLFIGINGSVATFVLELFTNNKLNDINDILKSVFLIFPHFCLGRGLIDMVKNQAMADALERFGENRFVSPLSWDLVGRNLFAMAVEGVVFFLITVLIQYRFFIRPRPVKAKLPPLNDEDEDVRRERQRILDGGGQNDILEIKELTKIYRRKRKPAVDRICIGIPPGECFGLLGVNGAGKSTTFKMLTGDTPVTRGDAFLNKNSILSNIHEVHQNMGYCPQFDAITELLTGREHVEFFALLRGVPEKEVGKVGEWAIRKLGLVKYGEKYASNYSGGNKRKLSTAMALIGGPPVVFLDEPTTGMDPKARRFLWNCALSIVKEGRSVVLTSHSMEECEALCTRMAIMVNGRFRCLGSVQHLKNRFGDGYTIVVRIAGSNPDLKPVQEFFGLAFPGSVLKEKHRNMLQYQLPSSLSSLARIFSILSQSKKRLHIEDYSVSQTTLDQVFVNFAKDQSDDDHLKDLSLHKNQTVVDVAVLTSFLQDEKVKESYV

For `COc1ccc(Cl)cc1C(=O)NCCc1ccc(S(=O)(=O)NC(=O)NC2CCCCC2)cc1` [Glyburide], in experiment [1], the “Inhibition of iodide transport” value was “inhibit iodide transport”. In addition, in experiment [2], the “Inhibition of ABC1 activity (cholesterol efflux)” value was “inhibit ABC1 activity”.
